Laboratory results from PMC12040169 (PLOS Biology, 2025).

Experiment: in vitro
Details: human, hela cells, % viability

Going from COc1ccc(CCCC(=O)Nc2cncc(OC3CCNCC3)n2)cc1OC [CBK028437T] to O=C(CCS(=O)(=O)c1ccccc1)Nc1cncc(OC2CCNCC2)n1 [CBK028438T], the viability at 28.5 h, 10 µM rises from 87.3% to 94.1%.

Going from CN(CC(=O)Nc1cncc(OC2CCNCC2)n1)C(=O)c1ccccc1 [CBK028440T] to O=C(Cc1c[nH]c2ccccc12)Nc1cncc(OC2CCNCC2)n1 [CBK028441T], the viability at 28.5 h, 10 µM falls from 105% to 91%.

First: CCOC(=O)CNC(=S)N[C@H]1CC[C@@]2(c3cccnc3)CCN(Cc3ccccc3)[C@H]2C1 [CBK028453]
Second: O=C(NCc1ccccc1OC1CCNC1)c1ccccn1 (stereo not shown) [CBK029464T]
The viability at 28.5 h, 10 µM of the first is higher: 115% for the first, 91.6% for the second.

First: NCCNc1cccc2c1ccn2S(=O)(=O)c1ccccc1 [CBK028470C]
Second: O=C(O)c1ccc(NS(=O)(=O)Cc2ccccc2)cc1 [CBK034061]
The viability at 28.5 h, 10 µM of the first is lower: 80.2% for the first, 105% for the second.

Compared with CN1CCN(c2cc(C(F)(F)F)c3scc(C(=O)NCCC4=CCCCC4)c3n2)CC1 [CBK028474], CCC(=O)c1cc(F)c(N2CCN(C(=O)c3cccs3)CC2)cc1C [CBK033892] is lower in viability at 28.5 h, 10 µM: 110% for the first, 104% for the second.

Compared with CCCNC(c1ccccc1)c1ccncc1 (stereo not shown) [CBK028505], CC(Nc1cc(N2CCN(CCO)CC2)ccc1[N+](=O)[O-])c1ccccc1 (stereo not shown) [CBK033838] is higher in viability at 28.5 h, 10 µM: 96.7% for the first, 106% for the second.

Going from CCOC(=O)N1CCC(NCC(C)(C)CN(C)C)CC1 [CBK028516] to CCOC(=O)N1CCN(CC(O)COc2cc(C)c(Cl)c(C)c2)CC1 (stereo not shown) [CBK033833C], the viability at 28.5 h, 10 µM falls from 96.2% to 88.9%.

First: COc1nc2nonc2nc1OC [CBK028544]
Second: COc1ccc(-c2n[nH]c(N)n2)cc1 [CBK028843]
The viability at 28.5 h, 10 µM of the first is lower: 110% for the first, 116% for the second.

Going from CCN(CC)C(=O)c1c(NS(=O)(=O)c2ccc(C)cc2)sc2c1CCCC2 [CBK028627] to O=C(c1c(NS(=O)(=O)c2ccc3ccccc3c2)sc2c1CCCC2)N1CCOCC1 [CBK028636], the viability at 28.5 h, 10 µM falls from 111% to 94.4%.

First: COC(=O)c1ccc(NS(=O)(=O)c2cc(Cl)sc2Cl)cc1 [CBK028684]
Second: Cc1c(Cl)cccc1S(=O)(=O)Nc1ccc(C(=O)O)cc1 [CBK034050]
The viability at 28.5 h, 10 µM of the first is higher: 107% for the first, 86.4% for the second.

Compared with Cc1nc(-c2nnc3ccc(Cl)nn23)c(Br)[nH]1 [CBK028706B], COc1cc(NC(=O)Cn2nc([N+](=O)[O-])c(Cl)c2C)c(OC)cc1Cl [CBK033535] is higher in viability at 28.5 h, 10 µM: 87.5% for the first, 97.9% for the second.

First: Nc1nc(Cc2ccc(F)cc2)no1 [CBK028717]
Second: CSc1cc(-c2ccc(F)cc2)n[nH]1 [CBK028809]
The viability at 28.5 h, 10 µM of the first is lower: 110% for the first, 123% for the second.

Going from CCOC(=O)c1cc(C(N)=S)c(C)nc1C(F)(F)F [CBK028734] to CC(C)Oc1ccc(C(F)(F)F)cc1N [CBK028895C], the viability at 28.5 h, 10 µM rises from 92.8% to 105%.

Going from CSc1cccc(NC(=S)N2CCCCC2CCN2CCOCC2)c1 (stereo not shown) [CBK028765] to O=C(OCCN1CCOCC1)c1ccccc1I [CBK033860], the viability at 28.5 h, 10 µM rises from 83.9% to 95.4%.

Going from O=C(NC(=O)N1CCSC1)c1c(Cl)cccc1Cl [CBK028794] to O=C(CN1CCOCC1)N1CCN(C(=O)c2ccc(Cl)cc2Cl)CC1 [CBK028992], the viability at 28.5 h, 10 µM rises from 85.3% to 97.7%.

Going from O=C(Nc1nccs1)c1ncn[nH]1 [CBK028821] to O=C(Nc1ccc(N2CCNCC2)nc1)c1cnccn1 [CBK029436T], the viability at 28.5 h, 10 µM rises from 102% to 126%.

Going from COCCNC(=O)C(C)SCc1ccccc1 (stereo not shown) [CBK028889] to Cn1cccc1C(=O)Nc1ccccc1N1CCNCC1 [CBK029450T], the viability at 28.5 h, 10 µM rises from 86.1% to 95.4%.

Going from CCNC(=O)/N=C(/N)Nc1nc2ccccc2s1 [CBK028890] to COc1ccc(-c2cc(C(=O)Nc3nc4ccc(S(C)(=O)=O)cc4s3)c3ccccc3n2)cc1 [CBK033551], the viability at 28.5 h, 10 µM rises from 72.1% to 95.9%.

Going from CC(C)(C)OC(=O)N[C@@H](Cc1ccccc1)CN(Cc1ccccc1)Cc1ccc(S(=O)(=O)N2CCOC2=O)cc1 [CBK028952] to Cc1ccc(Cl)cc1N(Cc1ccc(C(=O)N2CCC(C)CC2)cc1)S(=O)(=O)c1ccccc1 [CBK033646], the viability at 28.5 h, 10 µM rises from 86.1% to 107%.

Compared with O=C(c1ccc(Br)o1)N1CCc2ccc(S(=O)(=O)N3CCOCC3)cc21 [CBK028953], CCOc1ccc(NC(=O)c2ccc(CN3CCOCC3)cc2)cc1 [CBK033557] is lower in viability at 28.5 h, 10 µM: 100% for the first, 89.7% for the second.

Going from CC(C)NCC(O)COC1CCC(C(C)(C)C)CC1 (stereo not shown) [CBK029007C] to COC(=O)c1ccc(CN2CCCC2)cc1 [CBK029023], the viability at 28.5 h, 10 µM rises from 89.2% to 106%.

First: N#Cc1ccc(CN2C(=O)c3ccccc3C2=O)cc1 [CBK029022]
Second: Cc1cc(=O)oc2cc(OC(=O)C(Cc3ccccc3)N3C(=O)c4ccccc4C3=O)ccc12 (stereo not shown) [CBK033943]
The viability at 28.5 h, 10 µM of the first is higher: 100% for the first, 91.1% for the second.

Going from O=C(Nc1cccc(N2CCNCC2)c1)c1cccnc1 [CBK029414T] to O=C(Nc1ccc(N2CCNCC2)nc1)c1cccnc1 [CBK029439T], the viability at 28.5 h, 10 µM rises from 94.6% to 95.1%.

Going from O=C(Nc1cccc(N2CCNCC2)c1)c1ccnc2ccccc12 [CBK029416T] to COc1ccc(C(=O)Nc2ccccc2N2CCNCC2)cc1 [CBK029447T], the viability at 28.5 h, 10 µM rises from 95.5% to 107%.

Going from O=C(Nc1cccnc1N1CCNCC1)c1ccoc1 [CBK029417T] to O=C(Nc1ccccc1N1CCNCC1)c1ccoc1 [CBK029442T], the viability at 28.5 h, 10 µM rises from 95.4% to 96.2%.

First: O=C(Nc1cccnc1N1CCNCC1)c1cc(F)cc(F)c1 [CBK029420T]
Second: O=C(Nc1cccnc1N1CCNCC1)c1cccnc1 [CBK029426T]
The viability at 28.5 h, 10 µM of the first is lower: 92.3% for the first, 120% for the second.

Compared with Cc1cccc(CN(CCCN)C(=O)Nc2ccc(C(C)(C)C)cc2)n1 [CBK033365C], CC(=O)c1ccc(NC(=O)c2cccc(Cl)c2)cc1 [CBK033939] is lower in viability at 28.5 h, 10 µM: 98.3% for the first, 89.3% for the second.

Compared with COc1cc(NC(=O)c2cccnc2)c(Cl)cc1NC(=O)c1ccc(Cl)cc1 [CBK033522], Cc1ccc(S(=O)(=O)Nc2ccc(C(=O)O)cc2)cc1 [CBK034060] is lower in viability at 28.5 h, 10 µM: 98.2% for the first, 85.3% for the second.

Going from COc1ccc(CN2CCN(C(=O)c3ccccc3F)CC2)c(OC)c1 [CBK033601] to COc1cccc(CN2CCN(Cc3cc(OC)cc(OC)c3)CC2)c1 [CBK033622], the viability at 28.5 h, 10 µM falls from 125% to 91.2%.

Going from Oc1ccc(SCCCCN2CCCCC2)cc1 [CBK033676] to O=C(CCN1CCN(CCO)CC1)Nc1ccc(Cl)cc1 [CBK033787], the viability at 28.5 h, 10 µM falls from 110% to 101%.

Going from Cc1ccc2nsnc2c1NC(=O)COc1ccc([N+](=O)[O-])cc1 [CBK033705] to O=C(O)c1ccc(NS(=O)(=O)Cc2ccccc2[N+](=O)[O-])cc1 [CBK034054], the viability at 28.5 h, 10 µM falls from 95.6% to 90.4%.

First: CC(=O)c1ccc(N(C)C)cc1 [CBK033830]
Second: O=C(O)c1ccc(NS(=O)(=O)/C=C/c2ccccc2)cc1 [CBK034062]
The viability at 28.5 h, 10 µM of the first is higher: 106% for the first, 100% for the second.

First: COc1cc2c(cc1OC)CN(Cc1ccc(OCc3ccccc3)c(OC)c1)CC2 [CBK033974]
Second: COc1ccc2c(ccn2S(=O)(=O)c2ccc(N3CCNCC3)c(C(F)(F)F)c2)c1 [CBK034033C]
The viability at 28.5 h, 10 µM of the first is higher: 93% for the first, 89.3% for the second.

Same assay, conditions: human, hela cells, % viability, bulk resorufin, single well

With CSc1ccc(C(=O)C(C)(C)N2CCOCC2)cc1 [CBK028870] the viability at 28.5 h, 10 µM was 107%.
